SMILES strings stand for the structures. Where only a bound is given, the exact number is not on record here.

Consider 16 compounds from patent US10556866B2, “ROR gamma (RORγ) modulators” (LEAD PHARMA HOLDING B.V., priority 2015, dated 2020).

The subject of the first assay is IL-17A production in anti-CD3/anti-CD28 stimulated peripheral blood mononuclear cells (PBMCs). Kind of assay: Peripheral blood mononuclear cell (PBMC) IL-17 assay. The assay is classed as cell-based. The settings on record: 120 h, inhibition of IL-17A production, human PBMCs, 5 days, IL-17 ELISA, read-out: mean pIC50 (converted). The method, then:
Example inhibitor 5 was tested for its ability to inhibit the IL-17A production in anti-CD3/anti-CD28 stimulated peripheral blood mononuclear cells (PBMCs) isolated from human blood. The assay procedure and results are described below.
This assay is designed to measure the levels of IL-17A secreted from anti-CD3/anti-CD28 stimulated PBMCs with the aim of measuring RORγ mediated inhibition of IL-17A production.
The assay medium consists of 90% RPMI 1640 (Lonza), 10% heat inactivated fetal bovin serum (FBS, Lonza) and 100 U/mL penicillin/streptomycin solution.
Anti-CD3 antibody (BD Pharmingen) was diluted to 10 μg/ml in PBS (Lonza). 30 μL of 10 μg/ml anti-CD3 solution was added to the inner 60 wells, excluding any negative control wells, of a 96-well cell culture treated U-bottom plate (Greiner). Plates were incubated overnight (16-24 hours) at 37° C. and 5% CO2. […]
After incubation the plates were spun down at 1500 rpm for 4 minutes and the supernatant was collected. Subsequently, the IL-17A levels in the supernatants was determined using an IL-17 ELISA kit (human IL-17 DuoSet, R&D systems) according to manufacturer's protocol.
The half maximum inhibitory concentration (IC50) values for the test compounds were calculated from the IL-17A signal using GraphPad Prism software (GraphPad Software).
On to `O=C(NCc1ccc(S(=O)(=O)CC2CC2)cc1)c1ccc(C(O)(C(F)F)C(F)(F)F)cc1` (centres unmarked) [Example 5, N-[[4-(cyclopropylmethylsulfonyl)phenyl]methyl]-4-[1-(difluoromethyl)-2,2,2-trifluoro-1-hydroxy-ethyl]benzamide], for which the IC50 was 100 nM.

In the next assay the target is T1, RORγ (Homo sapiens, UniProt P51449).
T1 construct: expressed in transfected cells; host or cells: 293FT cells (Invitrogen), expression vector pFN26A (Promega)
T1 sequence (P51449 269-508 limits assumed): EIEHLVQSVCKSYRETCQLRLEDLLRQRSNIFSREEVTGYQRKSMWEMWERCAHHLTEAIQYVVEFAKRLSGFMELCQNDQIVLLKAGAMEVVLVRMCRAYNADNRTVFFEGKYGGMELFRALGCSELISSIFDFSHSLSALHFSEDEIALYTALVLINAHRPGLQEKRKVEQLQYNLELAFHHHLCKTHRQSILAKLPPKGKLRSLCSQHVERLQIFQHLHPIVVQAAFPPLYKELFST
In words: RORγ GAL4 reporter gene assay (luciferase readout). Format: cell-based. The settings on record: inhibition of RORγ (GAL4-RORγ-LBD) in 293FT cells, luciferase signal; read-out: mean pIC50 (converted). As for the experimental part: Example inhibitors 1-38 were tested for their ability to inhibit RORγ activity in a RORγ GAL4 reporter gene assay. The assay procedure and results are described below.
A GAL4 one-hybrid reporter system employing luciferase readout was established to determine inhibition of RORγ in 293FT cells. The RORγ ligand-binding domain (LBD) was fused to the yeast GAL4 DNA binding domain (DBD) and placed under the control of the human cytomegalovirus (CMV) immediate early promoter, using expression vector pFN26A (Promega) and standard recombinant DNA cloning methods. To serve as a control in the assay, a similar vector was generated in which the GAL4-DBD was fused to Herpes simplex virus protein 16 (VP16), a constitutive transcriptional activator.
To monitor the inhibitory effect of compounds on RORγ, a transcriptional reporter construct was used. The pGL4.35 vector (Promega) contains nine copies of the GAL4 Upstream Activator Sequence (UAS). This sequence drives the transcription of the luciferase reporter gene luc2P in response to binding of a fusion protein containing the GAL4 DNA binding domain, as for example expressed by the GAL4-RORγ-LBD and GAL4-VP16 expression vectors described above. To allow a GAL4 fusion protein to drive the expression of the luciferase reporter, the pGL4.35 expression vector and the appropriate GAL4 fusion protein expression vector were bulk transfected in the 293FT cells using standard transfection techniques.
The day after transfection, cells were plated into 96 well plates, test compound was added and the plates were incubated overnight. Subsequently, the firefly luciferase activity was quantified using luciferase detection reagent and luminescence readout.
293FT cells (Invitrogen) were transfected with a GAL4 fusion protein expression vector (as described above) and the transcriptional reporter construct (pGL4.35, Promega). 60 μL of TransIT-293 transfection reagent (Mirus Bio) was added drop wise to 1500 μl Opti-MEM I Reduced Serum Medium (Invitrogen) and incubated at RT (RT) for 5 to 20 minutes. 1500 μL of this reagent mixture was added to 5 μg of GAL4 fusion protein expression vector and 5 μg of the transcriptional reporter construct, and incubated at RT for 20 minutes.
To harvest 293FT cells from a T75 flask, first the culture medium was taken off the cells. Subsequently, the cells were washed with Phosphate Buffered Saline (PBS) (Lonza), after which the PBS was removed. To dissociate the cells, 1 ml of TrypLE Express (Invitrogen) was added to the flask, followed by incubation at RT until the cells visually started to detach. Cells were collected in 5 mL of assay medium (DMEM culture medium (Lonza), 10% dialyzed FBS (Invitrogen) and Pen/Strep (Lonza)) to achieve a single cell suspension. 10×10^6 cells were spun down and re-suspended in 10 mL of assay medium. Subsequently, the cell suspension was added to the transfection mix tube, and then transferred as a whole to a T75 flask (Greiner), followed by overnight (16-24 hours) incubation at 37° C. and 5% CO2.
For compound screening, the cells were harvested (as described above) and counted. 13×10^6 cells were spun down, the supernatant was aspirated and the cells were re-suspended in 17.3 mL of assay medium obtaining a cell suspension of 0.75×10^6 cells/mL. 80 μL of cell suspension (60,000 cells) was plated per well into a white, flat bottom, tissue culture treated, 96 well screening plates (Greiner).
Test compounds were diluted, starting from a 10 mM dimethylsulfoxide (DMSO) stock solution, to serial dilutions in DMSO at 500× the final test concentration. Subsequently, these solutions were diluted to 5× the final test concentration in two 10-fold-dilution steps in assay medium. The final DMSO concentration of the 5× test compound solution was 1%. 20 μL of the 5× test compound solution was added to each test well of the 96 well plate previously plated with 80 μl cell suspension, resulting in the final test concentration with 0.2% DMSO. […]
As for `O=C(NCc1ccc(S(=O)(=O)CC2CC2)cc1)c1ccc(C(O)(C(F)F)C(F)(F)F)cc1` (centres unmarked) [Example 5, N-[[4-(cyclopropylmethylsulfonyl)phenyl]methyl]-4-[1-(difluoromethyl)-2,2,2-trifluoro-1-hydroxy-ethyl]benzamide], the IC50 was at most 1000 nM.

With `CC(O)(c1ccc(C(=O)NCc2ccc(S(=O)(=O)CC3CC3)cc2)cc1)C(F)(F)F` (centres unmarked) [Example 2, N-[[4-(cyclopropylmethylsulfonyl)phenyl]methyl]-4-(2,2,2-trifluoro-1-hydroxy-1-methyl-ethyl)benzamide], the IC50 is at most 1000 nM.

With `CCC(O)(c1ccc(C(=O)NCc2ccc(S(=O)(=O)CC3CC3)cc2)cc1)C(F)(F)F` (racemic) [(−)-1, (−)-N-[[4-(cyclopropylmethylsulfonyl)phenyl]methyl]-4-[1-hydroxy-1-(trifluoromethyl)propyl]benzamide], the IC50 is at most 1000 nM.

`COC(c1ccc(C(=O)NCc2ccc(S(=O)(=O)CC3CC3)cc2C)cc1)(C(F)(F)F)C(F)(F)F` [Example 28, N-[[4-(cyclopropylmethylsulfonyl)-2-methyl-phenyl]methyl]-4-[2,2,2-trifluoro-1-methoxy-1-(trifluoromethyl)ethyl]benzamide]: the IC50 is at most 100 nM.

For `CC(C)CC(O)(c1ccc(C(=O)NCc2ccc(S(=O)(=O)CC3CC3)cc2)cc1)C(F)(F)F` (centres unmarked) [Example 8, N-[[4-(cyclopropylmethylsulfonyl)phenyl]methyl]-4-[1-hydroxy-3-methyl-1-(trifluoromethyl)butyl]benzamide], the IC50 was at most 100 nM.

Consider `CC(C)OC(c1ccc(C(=O)NCc2ccc(S(=O)(=O)CC3CC3)cc2)cc1)(C(F)(F)F)C(F)(F)F` [Example 26, N-[[4-(cyclopropylmethylsulfonyl)phenyl]methyl]-4-[2,2,2-trifluoro-1-isopropoxy-1-(trifluoromethyl)ethyl]benzamide], for which the IC50 is at most 100 nM.

Turning to `O=C(NCc1ccc(S(=O)(=O)CC2CC2)cc1)c1ccc(C(O)(C2CC2)C(F)(F)F)cc1` (centres unmarked) [Example 11, N-[[4-(cyclopropylmethylsulfonyl)phenyl]methyl]-4-(1-cyclopropyl-2,2,2-trifluoro-1-hydroxy-ethyl)benzamide], the IC50 was at most 100 nM.

Consider `Cc1cc(C(=O)NCc2ccc(S(=O)(=O)CC3CC3)cc2)ccc1C(O)(C(F)(F)F)C(F)(F)F` [Example 15, N-[[4-(cyclopropylmethylsulfonyl)phenyl]methyl]-3-methyl-4-[2,2,2-trifluoro-1-hydroxy-1-(trifluoromethyl)ethyl]benzamide], for which the IC50 is at most 100 nM.

With `CCS(=O)(=O)c1ccc(CNC(=O)c2ccc(C(O)(C(F)(F)F)C(F)(F)F)cc2)cc1` [Example 19, N-[(4-ethylsulfonylphenyl)methyl]-4-[2,2,2-trifluoro-1-hydroxy-1-(trifluoromethyl)ethyl]benzamide], the IC50 was below 10000 nM.

Take `COC(CC(C)(C)C)(c1ccc(C(=O)NCc2ccc(S(=O)(=O)CC3CC3)cc2)cc1)C(F)(F)F` (centres unmarked) [Example 33, N-[[4-(cyclopropylmethylsulfonyl)phenyl]methyl]-4-[1-methoxy-3,3-dimethyl-1-(trifluoromethyl)butyl]benzamide]: the IC50 was at most 100 nM.

With `CCCOC(c1ccc(C(=O)NCc2ccc(S(=O)(=O)NC3CC3)cc2)cc1)(C(F)(F)F)C(F)(F)F` [Example 32, N-[[4-(cyclopropylsulfamoyl)phenyl]methyl]-4-[2,2,2-trifluoro-1-propoxy-1-(trifluoromethyl)ethyl]benzamide], the IC50 was at most 1000 nM.

In the case of `C[C@@H](NC(=O)c1ccc(C(O)(C(F)(F)F)C(F)(F)F)cc1)c1ccc(S(=O)(=O)CC2CC2)cc1` [Example 34, N-[(1R)-1-[4-(cyclopropylmethylsulfonyl)phenyl]ethyl]-4-[2,2,2-trifluoro-1-hydroxy-1-(trifluoromethyl)ethyl]benzamide], the IC50 is below 10000 nM.

`CCC(O)(c1ccc(C(=O)NCc2ccc(S(=O)(=O)CC)cc2)cc1)C(F)(F)F` (centres unmarked) [Example 17, N-[(4-ethylsulfonylphenyl)methyl]-4-[1-hydroxy-1-(trifluoromethyl)propyl]benzamide]: the IC50 was below 10000 nM.

For the compound `CCOC(c1ccc(C(=O)NCc2ccc(S(=O)(=O)NC3CC3)cc2)cc1)(C(F)(F)F)C(F)(F)F` [Example 31, N-[[4-(cyclopropylsulfamoyl)phenyl]methyl]-4-[1-ethoxy-2,2,2-trifluoro-1-(trifluoromethyl)ethyl]benzamide], the IC50 was at most 1000 nM.

For `Cc1cc(C(O)(c2ccc(C(=O)NCc3ccc(S(=O)(=O)CC4CC4)cc3)cc2)C2CC2)no1` (centres unmarked) [Example 37, 4-[cyclopropyl-hydroxy-(5-methylisoxazol-3-yl)methyl]-N-[[4-(cyclopropylmethylsulfonyl)phenyl]methyl]benzamide], the IC50 was at most 1000 nM.

Turning to `CCCC(O)(c1ccc(C(=O)NCc2ccc(S(=O)(=O)CC3CC3)cc2)cc1)C(F)(F)F` (centres unmarked) [Example 6, N-[[4-(cyclopropylmethylsulfonyl)phenyl]methyl]-4-[1-hydroxy-1-(trifluoromethyl)butyl]benzamide], the IC50 was at most 100 nM.
